Experiment [1] has as its system C. elegans. As to the kind of experiment: Worm lifespan analysis. The format is in vivo. The conditions noted are these: for variation compared to control (%): vs N2 + water; for lifespan in sir-2.1(ok434) mutant / sir-2.1 dependence: sir-2.1(ok434) mutant worms. The procedure: Worm Lifespan Analysis Lifespan tests were performed as described in Mouchiroud et al (L. Mouchiroud et al., Pyruvate imbalance mediates metabolic reprogramming and mimics lifespan extension by dietary restriction in Caenorhabditis elegans. Aging Cell 10, 39 (2011)). Briefly, 60-100 animals were used per conditions and scored every other day. All lifespan experiments were performed at 20° C. […] Animals were exposed to compounds during the full life from eggs until death. To ensure a permanent exposure to the compound, plates were changed twice a week. All the compounds used in this study were dissolved in a water stock solution.

For experiment [2], the system named is C. elegans. As to the kind of experiment: NAD measurement by HPLC in worms. The format is in vivo. The conditions noted are these: day 4 of adulthood. The method, then:
Worm Respiration Assays Oxygen consumption was measured using the Seahorse XF24 equipment (Seahorse Bioscience Inc., North Billerica, Mass.) as described in Yamamoto et al. Typically, 200 animals per conditions were recovered from NGM plates with M9 medium, washed three times in 2 mLM9 to eliminate residual bacteria, and resuspended in 500 μL M9 medium. Worms were transferred in 24-well standard Seahorse plates (#100777-004) (50 worms per well) and oxygen consumption was measured 6 times. Respiration rates were normalized to the number of worms in each individual well. NAD measurement by HPLC For NAD+ quantification, approximately 1000 worms were collected in M9 buffer, washed five times to remove residual bacteria and flash-frozen in liquid nitrogen and stored at −80° C. until analysis. Extraction was started by adding 250 μl of 1.6M perchloric acid on frozen samples, followed by extensive homogenization in a Qiagen tissuelyser, and centrifugation at 20.000 g for 15 min. The supernatant was recovered and neutralized with a 3M potassium carbonate solution. […]

Experiment [3] relates to C. elegans. The experiment in a line: Worm respiration assay (Seahorse XF24). The format is in vivo. The settings on record: day 3 adult worms. The method, then: Worm Respiration Assays Oxygen consumption was measured using the Seahorse XF24 equipment (Seahorse Bioscience Inc., North Billerica, Mass.) as described in Yamamoto et al. Typically, 200 animals per conditions were recovered from NGM plates with M9 medium, washed three times in 2 mLM9 to eliminate residual bacteria, and resuspended in 500 μL M9 medium. Worms were transferred in 24-well standard Seahorse plates (#100777-004) (50 worms per well) and oxygen consumption was measured 6 times. Respiration rates were normalized to the number of worms in each individual well. NAD measurement by HPLC For NAD+ quantification, approximately 1000 worms were collected in M9 buffer, washed five times to remove residual bacteria and flash-frozen in liquid nitrogen and stored at −80° C. until analysis. Extraction was started by adding 250 μl of 1.6M perchloric acid on frozen samples, followed by extensive homogenization in a Qiagen tissuelyser, and centrifugation at 20.000 g for 15 min. The supernatant was recovered and neutralized with a 3M potassium carbonate solution. After centrifugation, 100 μl of supernatant was filtered and used for NAD measurement using an HPLC system (Agilent) with a Supelco LC-18-T column (Sigma), as described in Yoshino et al. (Yoshino, K. F. Mills, M. J. Yoon, S. Imai, Nicotinamide Mononucleotide, a Key NAD(+) Intermediate, Treats the Pathophysiology of Diet- and Age-Induced Diabetes in Mice. Cell Metab 14, 528 (2011)).

Experiment [4] concerns C. elegans. As to the kind of experiment: Quantitative RT-PCR in worms. The format is in vivo. The conditions noted are these: for expression of genes of mitochondrial oxidative metabolism (cts-1, cox-4): day 3 of adulthood; for daf-16 expression / sod-3 expression: in vivo. The procedure:
mRNA and mtDNA Analysis. Total RNA was prepared using TRIzol (Invitrogen) according to the manufacturer's instructions. RNA was treated with DNase, and 2 μg of RNA was used for reverse transcription (RT). cDNA was purified on QIAquick PCR cleanup columns (Qiagen, Valencia, Calif., USA). 50× diluted cDNA was used for RT-quantitative PCR (RT-VCR) VCR) reactions (Bai et al., 2007). The RT-qPCR reactions were performed using the Light-Cycler system (Roche Applied Science) and a qPCR Supermix (Qiagen) with the primers for mice summarized in Table 1 and 4, and with the primers for worms summarized on Table 7. mtDNA quantification was performed as described (Lagouge et al., 2006) with the primers indicated in Table 2 and 5.

For experiment [5], the system named is C. elegans. As to the kind of experiment: Confocal microscopy of mitochondria in body wall muscle (pmyo-3::mito::GFP reporter). The settings on record: in vivo. The method, then:
Confocal Microscopy and Image Processing Worms were immobilized with 6 mM solution of tetramisole hydrochloride (Sigma, Buchs, Switzerland) in M9 and mounted on 6% agarose pads on glass slides. Images of worms were acquired using Zeiss LSM 700 Upright confocal microscope (Carl Zeiss AG, Oberkochen, Germany) under non-saturating exposure conditions. All the snapshots were taken from the same part of C. elegans: muscles from the upper part of the worm, excluding the regions of oesophagus and vulva. For each condition multiple worms were observed and imaged. Image processing was performed with the Fiji software. One of the critical issues during the imaging process was the position of the worm, as it influences the level of background. For the uniformity of the represented images, contrast and brightness were adjusted in order, to eliminate the undesirable background signal. Neither of these manipulations was affecting the mitochondrial shape. Tracing of the mitochondrial network contour was done by the use of Gaussian blur filter followed by the application of Laplacian operator.

Experiment [6] deals with C. elegans. As to the kind of experiment: Worm fluorescence analysis (endogenous gut fluorescence/lipofuscin, sod-3::GFP). The settings on record: in vivo. The procedure: Fluorescence Analysis Quantification of GFP expression and endogenous gut fluorescence were carried out according to the protocol as described in Yamamoto et al. (Yamamoto et al., NCoR1 is a conserved physiological modulator of muscle mass and oxidative function. Cell 147, 827 (2011)). Briefly, GFP was monitored in day 1 or day 3 adults. Fluorimetric assays were performed using a Victor X4 multilabel plate reader (Perkin-Elmer Life Science). Eighty worms were picked at random (20 worms per well of a black-walled 96-well plate) and each well was read four times and averaged. Each experiment was repeated at least three times. Endogenous gut fluorescence was monitored at day 1, day 4 and day 8 by following the same protocol as described before.

Experiment [7] concerns C. elegans. As to the kind of experiment: MitoSox staining of worms (mitochondrial superoxide). The format is in vivo. The settings on record: day 3. The method, then: Briefly, a population of 100 worms was recovered in 1 ml of M9 buffer, washed three times to remove residual bacteria, and resuspended in 200 μl of 1:200 MitoSox stock solution (initial stock solution was dissolved at 1 mM in DMSO). After 20 minutes of treatment, worms were washed five times in 1 ml of M9 buffer to eliminate the MitoSox reagent, and then transferred in a black-walled 96-well plate for reading. Fluorescence produced by the Mitosox reaction was measured as described before.

Molecules are shown by their SMILES. Values joined by “and” are separate entries in the source; they are usually repeats but may differ in a detail not shown here. Equal values may be shown once. “Also recorded” adds a separate entry of the source.

For the compound `NC(=O)c1cccnc1` [NAM, nicotinamide], the “increase of worm lifespan” value in the experiment on C. elegans [1] (FIG. 39B) amounted to 18%. Besides, in the experiment with C. elegans [1] (N2, 200 nM), the “mean lifespan ± SE” value was determined as 23.5 ± 1.03 days and the “variation compared to control (%)” value is listed as “+18.1%”. Further, in the experiment with C. elegans [1] (N2, 500 nM), the “mean lifespan ± SE” value was 22.6 ± 0.92 days and the “variation compared to control (%)” value is “+13.5%”. Also, in the experiment with C. elegans [1] (N2, 1000 nM), the “mean lifespan ± SE” value is 21.8 ± 0.85 days and the “variation compared to control (%)” value is on record as “+9.5%”. Besides, the “lifespan in sir-2.1(ok434) mutant / sir-2.1 dependence” value in the experiment on C. elegans [1] was “sir-2.1-dependent fashion”. Moreover, in the experiment with C. elegans [1] (wild type N2 worms), the lifespan result was “extended lifespan”. In addition, the “NAD+ levels in C. elegans” value in the experiment with C. elegans [2] is listed as “increased NAD+ levels”. Moreover, in the experiment on C. elegans [3], the “oxygen consumption (respiration)” value is recorded as “increased respiration; also recorded: Oxygen consumption was increased”. Further, in the experiment with C. elegans [4], the “expression of genes of mitochondrial oxidative metabolism (cts-1, cox-4)” value was “trend for increased cts-1 expression”; the daf-16 expression entry is “without affecting daf-16 mRNA levels; also recorded: daf-16 was unchanged”; the sod-3 expression entry is given as “significantly higher sod-3 expression; also recorded: expression of sod-3 was increased”. In the experiment on C. elegans [5], the “mitochondrial content in body wall muscle” value is “increase muscle mitochondrial content; also recorded: increased mitochondrial content in body wall muscle” and the “mitochondrial morphology in body wall muscle” value is “affect mitochondrial morphology”.
Turning to `O=C(c1cc(Cc2n[nH]c(=O)c3ccccc23)ccc1F)N1CCN(C(=O)C2CC2)CC1` [AZD2281], the lifespan extension in the experiment on C. elegans [1] (100 nM (FIG. 34B)) came out at 22.9%. The “mean lifespan ± SE” value is 22.8 ± 0.9 days and 24.7 ± 0.669 days and 26.5 ± 0.77 days and 24.5 ± 0.94 days and 24.7 ± 0.55 days in the experiment on C. elegans [1] (N2, 100 nM, listed as AZD); 22.2 ± 1.15 days in the experiment with C. elegans [1] (N2, 500 nM); 21.2 ± 0.96 days with C. elegans [1] (N2, 1000 nM); 18.2 ± 0.76 days with C. elegans [1] (daf-16(mu86), 100 nM); 26.1 ± 0.78 days in the experiment on C. elegans [1] (pme-1(ok988), 100 nM); 21.9 ± 0.528 days in the experiment on C. elegans [1] (sir-2.1(ok434), 100 nM). Further, the “variation compared to control (%)” value was “+14.4%” in the experiment with C. elegans [1] (N2, 500 nM); “+9.2%” in the experiment on C. elegans [1] (N2, 1000 nM); −16.1% with C. elegans [1] (daf-16(mu86), 100 nM); “+31.2%” with C. elegans [1] (pme-1(ok988), 100 nM); “+6.7%” in the experiment on C. elegans [1] (sir-2.1(ok434), 100 nM). The “lifespan in daf-16 mutant worms” value with C. elegans [1] (daf-16(mu86) mutant worms) was “failed to increase lifespan; also recorded: fails to extend lifespan”. For the same compound, the “lifespan of the pme-1 mutant” value in the experiment with C. elegans [1] (pme-1 mutant worms) is listed as “not further extended; also recorded: pme-1-dependent manner”. Also, the “lifespan in sir-2.1(ok434) mutant / sir-2.1 dependence” value in the experiment with C. elegans [1] is “lost the AZD2281-induced longevity; also recorded: does not extend lifespan”. In the experiment with C. elegans [6], the “accumulation of the aging pigment lipofuscin” value was “reduced lipofuscin accumulation; also recorded: decreased the accumulation of the aging pigment lipofuscin”. Further, the “sod-3::GFP” value in the experiment on C. elegans [6] is “increase in sod-3::GFP”. Moreover, the “oxygen consumption (respiration)” value in the experiment on C. elegans [3] is listed as “robustly increased respiration; also recorded: Oxygen consumption was increased”. In the experiment on C. elegans [4], the “expression of genes of mitochondrial oxidative metabolism (cts-1, cox-4)” value is “increased expression of citrate synthase (cts-1) and cytochrome c oxidase subunit 4 (cox-4); also recorded: increased expression of genes involved in mitochondrial oxidative metabolism”. Also, the daf-16 expression entry in the experiment with C. elegans [4] is on record as “did not change expression of daf-16”. Moreover, the sod-3 expression result with C. elegans [4] is “marked induction”. In addition, in the experiment on C. elegans [5], the “mitochondrial content in body wall muscle” value is recorded as “more dense mitochondrial network”. The “ROS production (mitoSOX)” value in the experiment on C. elegans [7] is “ROS production was decreased”.

Values taken from patent US10709724B2, “Methods of treating mitochondrial dysfunction” (Ecole Polytechnique Federale de Lausanne (EPFL), priority 2011, dated 2020).
